How the values were obtained:
NOX1 = molecular target: T1, NOX1 (Homo sapiens, UniProt Q9Y5S8); experiment: NOX1 HT29 cell-based assay (luminol/HRP luminescence); conditions: HT29 cells, DMSO = 0%, GKT137831 = 100%; for inhibition at 0.1 µM / inhibition at 1 µM: HT-29
T1 construct: endogenous in cells; host or cells: HT29
T1 sequence (Q9Y5S8 1-564): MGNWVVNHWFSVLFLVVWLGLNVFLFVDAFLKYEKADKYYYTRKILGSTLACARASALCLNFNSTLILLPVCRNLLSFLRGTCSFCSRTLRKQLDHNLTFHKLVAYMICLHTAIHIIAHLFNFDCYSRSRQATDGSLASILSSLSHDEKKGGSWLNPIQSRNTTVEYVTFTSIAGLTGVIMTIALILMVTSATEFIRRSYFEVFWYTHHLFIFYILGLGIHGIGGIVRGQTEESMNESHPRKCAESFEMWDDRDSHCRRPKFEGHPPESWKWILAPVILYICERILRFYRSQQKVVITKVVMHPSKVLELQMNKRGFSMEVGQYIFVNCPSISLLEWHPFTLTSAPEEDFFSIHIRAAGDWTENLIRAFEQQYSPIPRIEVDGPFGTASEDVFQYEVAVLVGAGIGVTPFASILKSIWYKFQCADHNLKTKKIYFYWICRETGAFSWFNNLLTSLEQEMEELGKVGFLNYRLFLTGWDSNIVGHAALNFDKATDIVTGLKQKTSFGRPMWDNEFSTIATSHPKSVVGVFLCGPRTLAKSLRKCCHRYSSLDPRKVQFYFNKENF
T1 sequence (P13498 2-195 partner limits assumed): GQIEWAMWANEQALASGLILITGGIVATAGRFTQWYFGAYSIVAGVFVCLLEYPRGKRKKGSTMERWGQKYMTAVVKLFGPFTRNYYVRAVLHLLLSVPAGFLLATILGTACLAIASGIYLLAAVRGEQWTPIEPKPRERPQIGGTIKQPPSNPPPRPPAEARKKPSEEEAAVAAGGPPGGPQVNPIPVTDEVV
Method: NOX1 HT29 Cell-Based Assay:
HT29 cells were cultured in T75 flask (Corning) and when 70-80% confluence was reached, cells were trypsinized, harvested in HBSS and counted. 1-2×10^5 cells were dispensed into individual wells in 70 μl final volume (96-well plates, white Corning). Cells were treated for 30-60 mins at 37° C. with 10 μl of GKT137831, DMSO and test compounds from their respective assay plates. This will correspond to a final concentration of 100 nM, 1000 nM GKT137831 or test compounds, and 0.1% DMSO. 20 μL of a mixture containing 100 μM luminol plus 0.4 units of HRP (final concentration) was added. Luminescence was quantified using a SpectraMax i3 Multiplate reader (Molecular Devices, Sunnyvale, Calif., USA). As designed, compounds that inhibit NOX1 activity will reduce cellular ROS production, leading to reduced probe-ROS interactions and reduced well luminescence. Compounds were tested in duplicate at a concentration of 100 nM and 1000 nM. DMSO and GKT137831 wells were applied as negative and positive controls, and the activities measured were set to 0% and 100%, respectively.

NOX2 = molecular target: T2, NOX2 (Homo sapiens, UniProt P04839); experiment: NOX2 HL60 cell-based assay (PMA oxidative burst, L012 chemiluminescence); conditions: DMSO-differentiated HL-60 cells, PMA-stimulated; for inhibition at 1 µM: HL-60, 1000 nM; for inhibition at 0.1 µM: HL-60, 100 nM
T2 construct: HL-60 cells, rich in NOX2 expression; endogenous in cells; host or cells: DMSO-differentiated HL-60
T2 sequence (P04839 2-570 limits assumed): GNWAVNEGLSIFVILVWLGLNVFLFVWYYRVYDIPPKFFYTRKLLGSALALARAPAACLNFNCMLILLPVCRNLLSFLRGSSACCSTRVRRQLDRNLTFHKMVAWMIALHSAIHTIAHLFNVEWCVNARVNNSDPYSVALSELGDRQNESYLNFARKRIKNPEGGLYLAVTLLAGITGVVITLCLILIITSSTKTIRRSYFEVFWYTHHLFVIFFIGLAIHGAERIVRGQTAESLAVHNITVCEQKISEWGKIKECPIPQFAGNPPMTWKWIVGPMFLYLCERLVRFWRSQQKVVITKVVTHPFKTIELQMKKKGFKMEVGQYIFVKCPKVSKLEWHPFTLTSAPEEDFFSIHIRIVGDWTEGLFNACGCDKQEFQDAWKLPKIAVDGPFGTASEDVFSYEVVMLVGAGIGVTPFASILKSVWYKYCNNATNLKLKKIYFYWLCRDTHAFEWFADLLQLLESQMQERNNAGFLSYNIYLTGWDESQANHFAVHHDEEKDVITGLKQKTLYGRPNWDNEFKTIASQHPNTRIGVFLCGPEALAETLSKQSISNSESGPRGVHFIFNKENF
T2 sequence (P13498 2-195 partner limits assumed): T1 sequence (P13498 2-195 partner limits assumed)
Method: NOX2 HL60 Cell-Based Assay:
HL-60 cells, rich in NOX2 expression, was stimulated to undergo oxidative burst by phorbol myristate acetate (PMA). The ROS produced during this process was measured using the O2^−-specific chemiluminescent probe L012. L012 was added to DMSO-differentiated HL-60 cell suspensions to a final concentration of 100 μM. Then, 80 μL aliquots of cell suspension (2.5×10^5 cells) were transferred to individual wells of a 96-well plate. Test compounds were directly added to the wells at the specified concentrations. Following a 30-60 mins incubation at 37° C. in the dark, the oxidative burst was initiated by the addition of 10 ng/mL PMA, and the chemiluminescence signal was recorded every 5 min over a period of 60 mins in a SpectraMax i3 Multiplate reader (Molecular Devices, Sunnyvale, Calif., USA). • NOX4 HEK293 Overexpression Cell-Based Assay: […]

NOX4 = molecular target: T3, NOX4 (Homo sapiens, UniProt Q9NPH5); experiment: NOX4 HEK293 overexpression cell-based assay (Amplex Red H2O2); conditions: HEK293 cells stably overexpressing NOX4, DMSO = 0, GKT137831 = 100; for inhibition at 1 µM: HEK293, 1000 nM; for inhibition at 0.1 µM: HEK293, 100 nM
T3 construct: expressed in transfected cells
T3 sequence (Q9NPH5 1-578): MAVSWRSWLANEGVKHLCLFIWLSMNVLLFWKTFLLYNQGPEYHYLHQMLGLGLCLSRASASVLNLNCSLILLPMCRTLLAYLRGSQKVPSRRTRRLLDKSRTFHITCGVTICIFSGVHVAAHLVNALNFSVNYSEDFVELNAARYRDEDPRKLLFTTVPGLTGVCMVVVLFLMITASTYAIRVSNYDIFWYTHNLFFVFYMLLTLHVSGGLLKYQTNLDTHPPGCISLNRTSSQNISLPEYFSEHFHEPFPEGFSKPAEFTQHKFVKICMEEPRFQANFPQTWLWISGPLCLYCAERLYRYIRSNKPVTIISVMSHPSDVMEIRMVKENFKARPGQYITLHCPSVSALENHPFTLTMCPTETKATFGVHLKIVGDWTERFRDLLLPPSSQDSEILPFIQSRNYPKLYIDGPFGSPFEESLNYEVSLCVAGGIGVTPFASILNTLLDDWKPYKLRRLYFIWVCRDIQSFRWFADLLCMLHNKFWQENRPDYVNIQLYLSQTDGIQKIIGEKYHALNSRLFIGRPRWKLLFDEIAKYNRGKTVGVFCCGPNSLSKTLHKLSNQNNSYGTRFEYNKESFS
T3 sequence (P13498 2-195 partner limits assumed): T1 sequence (P13498 2-195 partner limits assumed)
Method: Extracellular H2O2 measurement using Amplex™ Red Hydrogen Peroxide/Peroxidase Assay Kit (Catalog number: A22188; Invitrogen, Carlsbad, Calif., USA) was used to detect extracellular H2O2 release by HEK293 cells stably overexpressing NOX4. NOX4 clonal cells in log-phase growth were trypsinized, washed, and dispersed thoroughly. Following trypsinization, the cells (3×10^4) were resuspended in 100 μL of 1× Krebs-Ringer phosphate glucose (KRPG) buffer containing various concentrations of GKT137831 or test compounds and incubated at 37° C. for 30 min. Cells were mixed with 100 μL of Amplex Red reagent solution containing 50 μM Amplex Red and 0.1 units/mL of HRP in KRPG buffer; each assay condition was evaluated induplicate. The samples were incubated at 37° C. for 90 mins in the dark, and then centrifuged at 2,500 g for 5 mins. The supernatants were loaded to a 96 well plate, and then measured using a SpectraMax i3 Multiplate reader (Molecular Devices, Sunnyvale, Calif., USA) at 530 nm excitation and 590 nm emission respectively. DMSO and GKT137831 wells were applied as negative and positive controls, and the activities measured were set to 0 and 100, respectively.

SMILES	inhibition at 0.1 µM (NOX1; 100 nM) [%]	inhibition at 1 µM (NOX1; 1000 nM) [%]	inhibition at 1 µM (NOX2) [%]	inhibition at 1 µM (NOX4) [%]	inhibition at 0.1 µM (NOX2) [%]	inhibition at 0.1 µM (NOX4) [%]	% Inhibition NOX2 (NOX2; 100 nM, 0.1 µM)	% Inhibition NOX4 (NOX4; 100 nM)	% Inhibition NOX2 (NOX2; 100 nM)	% Inhibition NOX2 (NOX2; 1000 nM)	% Inhibition NOX4 (NOX4; 1000 nM)	% Inhibition NOX1 (NOX1; 100 nM)	% Inhibition NOX1 (NOX1; 1000 nM)	% Inhibition NOX2 (NOX2; 100 nM, methanesulfonate, 0.1 µM)	% Inhibition NOX2 (NOX2; 1000 nM, methanesulfonate, 1 µM)
COc1ccc(-c2c(O)c(=O)c3ccccc3n2C)cc1 [Compound 39]	≤ 19	≥ 80	≤ 19	50 to 79	≤ 19	≤ 19									
COc1ccc(C(=O)COC(=O)c2ccc3c(=O)c(O)c(-c4ccc(OC)cc4)[nH]c3c2)cc1 [Compound 32, 2-(4-methoxyphenyl)-2-oxoethyl 3-hydroxy-2-(4-methoxyphenyl)-4-oxo-1,4-dihydroquinoline-7-carboxylate 2,2,2-trifluoroacetate]	≤ 19	50 to 79				≤ 19			C (the percent of inhibition of NOX by the compounds ranges from 2000 to 49%)	C (the percent of inhibition of NOX by the compounds ranges from 2000 to 49%)	C (the percent of inhibition of NOX by the compounds ranges from 2000 to 49%)				
COc1ccccc1-c1[nH]c2cccc(Br)c2c(=O)c1O [Compound 25]	50 to 79	≥ 80	50 to 79		≤ 19	≤ 19					C (the percent of inhibition of NOX by the compounds ranges from 2000 to 49%)				
COc1cc2[nH]c(-c3ccccc3C(F)(F)F)c(O)c(=O)c2cc1OC [Compound 44, 3-hydroxy-6,7-dimethoxy-2-(2-(trifluoromethyl)phenyl)quinolin-4(1H)-one methanesulfonate]														C (the percent of inhibition of NOX by the compounds ranges from 2000 to 49%)	A (the percent of inhibition of NOX by the compounds is larger than or equals to 80%)

The next lines start with results.

inhibition at 0.1 µM (NOX1; 100 nM) [%]	inhibition at 1 µM (NOX1; 1000 nM) [%]	inhibition at 1 µM (NOX2) [%]	inhibition at 1 µM (NOX4) [%]	inhibition at 0.1 µM (NOX2) [%]	inhibition at 0.1 µM (NOX4) [%]	SMILES	% Inhibition NOX2 (NOX2; 100 nM, 0.1 µM)	% Inhibition NOX4 (NOX4; 100 nM)	% Inhibition NOX2 (NOX2; 100 nM)	% Inhibition NOX2 (NOX2; 1000 nM)	% Inhibition NOX4 (NOX4; 1000 nM)	% Inhibition NOX1 (NOX1; 100 nM)	% Inhibition NOX1 (NOX1; 1000 nM)	% Inhibition NOX2 (NOX2; 100 nM, methanesulfonate, 0.1 µM)	% Inhibition NOX2 (NOX2; 1000 nM, methanesulfonate, 1 µM)
≥ 80	≥ 80	≥ 80	50 to 79			COc1cc2[nH]c(-c3ccc(Cl)cc3Cl)c(O)c(=O)c2cc1OC [Compound 24]	C (the percent of inhibition of NOX by the compounds ranges from 2000 to 49%)	C (the percent of inhibition of NOX by the compounds ranges from 2000 to 49%)							
≥ 80	≥ 80	≥ 80	50 to 79	50 to 79	50 to 79	COc1cc2[nH]c(-c3ccccc3S(C)(=O)=O)c(O)c(=O)c2cc1OC [Compound 23]									
≤ 19	50 to 79	≤ 19	≥ 80	≤ 19		COc1cc2[nH]c(-c3ccc(N4CCCC4)cc3)c(O)c(=O)c2cc1OC [Compound 11]		C (the percent of inhibition of NOX by the compounds ranges from 2000 to 49%)							
				50 to 79		COc1cc2[nH]c(-c3ccccc3C(F)(F)F)c(O)c(=O)c2cc1OC.Cl [Compound 42, 3-hydroxy-6,7-dimethoxy-2-(2-(trifluoromethyl)phenyl) quinolin-4(1H)-one hydrochloride]		B (the percent of inhibition of NOX by the compounds ranges from 50% o to 79% o)		A (the percent of inhibition of NOX by the compounds is larger than or equals to 80%)	B (the percent of inhibition of NOX by the compounds ranges from 50% o to 79% o)	A (the percent of inhibition of NOX by the compounds is larger than or equals to 80%)	A (the percent of inhibition of NOX by the compounds is larger than or equals to 80%)		

Source: patent publication US11661400B2, “NADPH oxidase inhibitors, pharmaceutical composition comprising the same, and application thereof” (TAIWANJ PHARMACEUTICALS CO., LTD., priority 2018, dated 2023)
